Measured values taken from patent publication US6566140B2, “Inhibition of coagulation in blood and blood products” (University of Vermont and State Agriculture College, priority 1998, dated 2003).

What was measured:
[1] = system: tissue factor initiated clotting of platelet poor plasma; assay: plasma clotting assay using CTI (Example 3); assay type: biochemical, human; settings: patients on stabilized coumadin therapy
Protocol: Blood was drawn directly into sterile buffered 3.8% sodium citrate tubes (Vacutainer brand, product # L10318-00, Becton-Dickinson and Co.), and the tubes were centrifuged at 4227 RCF for 3 minutes (Baxter Stat 60 bench top centrifuge). The supernatant was decanted and an automated PT was established for each patient sample. Platelet poor samples were isolated by further centrifugation for 10 minutes at 14,000 rpm, and the top two-thirds of the plasma was transferred to a Sarstedt rectic cup where it was stored for subsequent analysis at −80° C. Prior to thawing, CTI (stock concentration 1-5 mg/mL) was layered onto the frozen sample in an amount sufficient to give a final concentration of 100 μg CTI/mL plasma. Such citrated plasma containing CTI was used within 0-2 hours (stored at 2-8° C.).
Platelet poor plasma collected as described in Example 1 or 2 from either patients or normal donors, was delivered (100 μL) into a 12×75 mm disposable polystryrene tube (VWR Scientific, product #60818-361). Calcium chloride (10 μL, 300 mM CaCl2) was added, followed immediately by an amount of concentrated PSPC (prepared as described above, typical stock concentration ˜1-5 mM in HBS, pH 7.4) so that the final concentration of lipid in the mixture was […]. To initiate the reaction at zero time, 20 μL of stock tissue factor reagent (described below) was added to a final TF concentration of 1 nM. […]

[2] = system: tissue factor initiated clotting of recalcified citrated plasma; assay: extended plasma prothrombin time (XpPT) assay; assay type: biochemical, human; settings: for clot time of patient plasma: patients on Coumadin therapy, 0.5 nM TF, 100 μg/ml CTI; for XpPT clot time of patient plasma (s.e.m.): patients on moderate Coumadin therapy, 0.5 nM tissue factor
Protocol: The result was a standard system of coagulation evaluation in which a plasma sample collected in 11 mM trisodium citrate was frozen (standard pathology laboratory collection system) defrosted in the presence of 100 μgm/ml corn trypsin inhibitor (final concentration) and the assay ultimately conducted described in Materials and Methods section below. The final concentrations in the tissue factor clotting sample included 100 μgm/ml CTI 30 mM CaCl2, 50 μM 75% PC:25PS vesicles and 0.5 nM tissue factor. This system is referred to as the XpPT assay.
To study the effects of heparin, 0-3 U/mL (10,000 u/mL stock) were titrated into normal, CTI (100 μg/mL), citrated plasma. Into reaction cuvettes, […] of plasma, 10 μL of 300 mM CaCl2 (final, 30 mM) and […] of 3.72 mM PCPS (final concentration, 50 μM) were added. Appropriate volumes of heparin (10,000 U/mL) were added to give 0.25, 0.5, 1.0, 1.5, 2.0, and 3.0 U/mL final concentration in 100 μL plasma. The reaction was initiated by adding 10 μL of 5 nM rTF (0.5 nM final concentration).
The assay was used along lines discussed previously except that TFPI was added (50 μg/mL stock) at 5.0, 10.0, 20.0, 60 nM final concentration and initiating with 10 μL of 5.0 nM rTF (0.5 nM).
Citrated platelet poor plasma (PPP) from a normal pool, patient cohorts, or factor V, VII, VIII and IX deficient pools was treated with 3.7 μL of 2.72 mg/mL (100 μg/mL final concentration) corn trypsin inhibitor (CTI) prior to thawing at 37° C. The thawed plasma was spun at 16,000×g (Eppendorf model 5415-C bench top centrifuge) for 10 minutes. Clot times were done by either a manual, tilt-tube method or using a Stago ST-4 detector. (Results were equivalent with each method.) For both methods test tubes made of clear polystyrene or similar clear plastic were used.
Reaction cuvettes for the ST4 clot detector were equilibrated to 37° C. (3 minutes) in the appropriate incubation chambers. Calcium equilibration was started by adding 10 μL of 300 mM CaCl2 (final, 30 mM) to 100 μL of the CTI treated citrated PPP (normal, patient or deficient) for 15 seconds followed by 1.3 μL of 3.72 mM PCPS (25:75 PC/PS) (final concentration, 50 μM) 15 seconds. The reaction was initiated by adding 10 μL of 5.0 nM rTF (final 0.5 nM TF) or 2.5 μL of 0.5 nM rTF (12.5 pM final). End point clot times were determined visually or mechanically on the ST4 using the PTT mode, no incubation, with an upper end timing limit of 999 seconds.

hemophilia C blood = assay: coagulation in hemophilia C (factor XI deficient) whole blood with factor XI replacement; assay type: cell-based, human; settings: for clot time: CTI 48 μg/mL
Source text: Table 1 below reports the clot times for coagulation in factor XI-deficient blood, deficient blood with replacement and normal whole blood initiated at 25 and 5 pM TF with suppression of contact activation by corn trypsin inhibitor. […] Data are given for each of the experiments described in the text, along with phlebotomy control values i(in parentheses) for clotting in the absence of added tissue factor initiator. […] In all experiments, including controls, factor XIIa activity was suppressed by the addition of corn trypsin inhibitor at the level of 48 μg/mL of blood (see Methods for brief description of the experiments). For the experiments with 25 pM initiator, patient A was the donor; in the 5 pM experiments, the donor was patient B.
The protocol employed is a modification of Rand, M. D., et al. supra performed under the supervision of one of the authors (R. F. B.) at the Clinical Research Center, Fletcher Allen Health Care (Burlington, Vt.). Clotting in freshly drawn, non-anticoagulated whole blood was carried out in 32 capped polystyrene culture tubes as described, except that two series were performed per experiment (16 tubes/series). Reagents were loaded in the following amounts: corn trypsin inhibitor (all tubes, to give 50 μg/mL blood); relipidated TF (lipid:protein=2000) in HBS with 5 mM calcium (all tubes in each series except phlebotomy control tube, to give 25 or 5 pM TF/mL blood); factor VIII or factor XI (all tubes, replacement series only, to give 1 U/mL final); equivalent volume factor VIII/XI dilution buffer (HBS, pH 7.4, all tubes, deficiency series only). No more than 45 μL reagent were loaded in each tube. The zero tube of each series was pre-treated using 1 mL inhibitor cocktail (containing 50 mM EDTA and 20 mM benzamidine-HCl in HBS, pH 7.4), and 10 μL of 10 mM FPRck (diluted in 0.01 M HCl).
Patient or normal donor blood was drawn by venipuncture under a protocol approved by the Human Studies Committee at the University of Vermont, as described Rand, M. D., et al. supra. Clotting was initiated by delivery into the reagent-loaded tubes, and with periodic quenching of the tubes with inhibitor cocktail and FPRck as described above. Two series of quenched samples were obtained following reaction progress up to 20 minutes after initiation; both reducing (1% β-mercaptoethanol) and non-reducing SDS-PAGE samples were prepared from each tube (60 μL supernatant, 190 μL 2% SDS-PAGE sample solution Rand, M. D., et al. supra heated exactly 5 minutes at 98+/−2° C.). An aliquot from each tube was filtered to remove cellular contaminants for ostleonectin assays (200 μL, 0.2 μm AcroDisc, Gelman Sciences, Ann Arbor, Mich.). The remaining serum and cell pellets/clots were aliquotted to screw cap tubes, frozen and stored at −20° C. for immunoblot or immunoassay analysis.
Commercial ELISAs for fibrinopeptide A (FPA), thrombin-antithrombin-III (TAT) and platelet α-granule release (osteonectin) were performed according to manufacturers protocols, with corrections for sample dilution by added quench solution (1.00 mL) and hematocrit (typically 40% of the total blood volume). For analysis of factor Va, samples were separated on SDS-PAGE according to Laemmli, U.K. (1970) Nature 227: 680 as modified by our laboratory Rand, M. D., et al. (1996) supra. Separate gels were run for heavy chain and light chain analysis. Gels were loaded with a pre-stained molecular weight standard mixture (14-200 kDa) and dilute standards (3 samples) allowing comparison and quantitation of analyte amounts horizontally on the immunoblots. Transfer from the gel to nitrocellulose (BioRad, Hercules, Calif.) was performed for 1.5-3 hours via an SDS-free tank transfer procedure as described (Towbin H, et al. (1979) Proc Natl Acad Sci. (USA) 76: 4350 and Gallagher, S. et al. (1993) Current Protocols in Molecular Biology. J. Wiley and Sons. 10.8.1.) with subsequent immunoblot analysis according to Rand, M. D., et al.(1996) supra. […]

[3] = system: factor XI deficient plasma; assay: tissue factor dependence of clotting in factor XI-deficient plasma; assay type: biochemical, human; settings: CTI, factor XI 1 U/mL
Protocol: FIG. 3 is explained as follows: clot time in factor XI deficient plasma (<1%) was measured as a function of tissue factor and […] (as described in Methods). The ordinate is shown in seconds (left-hand axis) and minutes (right-hand axis). Two curves are presented: one for factor XI deficient plasma without factor XI replacement (<1%, filled squares) and a second curve for the same plasma with 1 U/mL factor XI (25 nM, filled circles). To connect the data, smooth curves were drawn which meet near 24 pM TF. The curves become increasingly divergent as tissue factor concentration is reduced to 6 pM TF, where the difference is most pronounced.
Relipidated tissue factor reagent (see above) was rehydrated (200 μl) and diluted with HBS/calcium (2 mM) to obtain a stock reagent containing 552 pM TF and 1.10 μM PCPS. This initial stock was further diluted with PCPS (1. 10 μM) in HBS/calcium (2 mM) to obtain a set of working TF stock concentrations ranging from 17.25 to 552 pM TF at constant lipid concentration. The assay was performed according to the following protocol: Into a polystyrene tube (12×75 mm) was added 200 μL human plasma (XI-deficient, <1% XI:C; or XI-deficient with factor XI replaced at 3.5 μg/mL, 100 U/dL) and 10 μL corn trypsin inhibitor (1.15 mg/mL in HBS). […]

[4] = factor XI replacement, 25 pM TF

## CC(=O)CC(c1ccccc1)c1c(O)c2ccccc2oc1=O (stereo not drawn) [Coumadin]
[1]; INR of 2.0, normal (INR 1) 60-75 seconds
  clot time of patient plasma: 215 to 240 s
[1]; INR of 5.0
  clot time of patient plasma: 700 to 800 s
[2]; INR of 2, normal 82±6s
  clot time of patient plasma: 211 ± 8 s
[2]; INR of 4.3
  clot time of patient plasma: 616 ± 9 s
  XpPT clot time of patient plasma (s.e.m.): 610.8 ± 4.2 s
[2]; INR of 2.0, normal 82.5±0.63 seconds
  XpPT clot time of patient plasma (s.e.m.): 212.6 ± 2.2 s

## factor XI: human factor XI used for replacement at 1 U/mL
Hemophilia C blood; XI-deficient blood (patient A) with factor XI replacement 1 U/mL, 25 pmol/L TF
  clot time: 3.7 min
Hemophilia C blood; XI-deficient blood (patient A) with factor XI replacement, CTI, no TF
  phlebotomy control clot time, −TF: (control, −TF > 20.3 min.)
Hemophilia C blood; XI-deficient blood (patient B) with factor XI replacement 1 U/mL, 5 pmol/L TF
  clot time: 9.7 min
Hemophilia C blood; factor XI deficient blood
  clotting time with factor XI and corn trypsin inhibitor in the absence of TF: > 20 min
Hemophilia C blood; factor XI replacement, 5 pM TF
  FPA formation rate: 7.4 µM/min
  TAT rate at clot time: 119 nM/min
  final level of TAT: 600 nM
  osteonectin release by clot time: 67%
  thrombin generation rate: 119 nmol TAT/L/min
  time after clot time to complete fibrinogen conversion: 2 to 2.5 min
  time of maximum factor Va heavy chain: ~12 min
Hemophilia C blood; [4]
  final TAT concentration: 950 nM
  maximum rate of FPA release: 7.3 µM/min
  rate of thrombin generation: 85 nmol·L/min
  thrombin generation rate: 85 nmol TAT/L/min
Hemophilia C blood; hemophilia C blood, 5 pM TF
  shortening of clot time by factor XI replacement: 6 min
[3]; 6 pM TF
  difference in clot time without versus with factor XI: 5.7 min
[3]; 24 pM TF
  difference in clot time without versus with factor XI: 0.467 min
